Tests used:
ZDF rats = assay: plasma glucose in male Zucker Diabetic Fatty rats, daily oral dosing (study 338); assay type: in vivo; settings: ZDF rats; after 3 weeks; groups receiving 0.3, 1.0 and 3.0 mg kg^−1 (p<0.05, <0.01 and <0.01)
[1] = tested on: cats with experimental diabetes; settings: subcutaneous injection of a suspension in olive oil; Lukens et al. 1943, 1961; cited from earlier work

SMILES: OC[C@H]1O[C@@H](c2ccc(Cl)c(Cc3ccc(OCCOC4CC4)cc3)c2)[C@H](O)[C@@H](O)[C@@H]1O [EGT0001474, bis-proline complex of (2S,3R,4R,5S,6R)-2-(4-chloro-3-(4-(2-cyclopropoxyethoxy)benzyl)phenyl)-6-(hydroxymethyl)tetrahydro-2H-pyran-3,4,5-triol]
- plasma glucose levels compared to vehicle control (ZDF rats): significantly lower

SMILES: O=C(CCc1ccc(O)cc1)c1c(O)cc(O)cc1O[C@@H]1O[C@H](CO)[C@@H](O)[C@H](O)[C@H]1O [phlorizin]
- hyperglycemia in diabetic cats [1]: dramatic reduction of hyperglycemia

Reference: patent publication US12274689B2, “Compound for the management of feline diabetes” (INCREVET, INC., priority 2019, dated 2025)
